In publication doi:10.1101/2023.05.15.540887, “Comparative analysis of drug-like EP300/CREBBP acetyltransferase inhibitors” (bioRxiv, 2023):

What was measured:
MCF10A PANK4 KO+EV cells = experiment: Sulforhodamine B cell growth assay, MCF10A PANK4 KO+EV; format: cell-based, human
NCI-H322M = experiment: NCI-60 growth inhibition (sulforhodamine B); format: cell-based, human; conditions: NCI-H322M (Non-Small Cell Lung Cancer), negative log of Molar conc., LCONC -8
U251 = experiment: NCI-60 growth inhibition (sulforhodamine B); format: cell-based, human; conditions: U251 (CNS Cancer), negative log of Molar conc., LCONC -8
SK-MEL-2 = test system: SK-MEL-2; parameters: method as in ref 29 (a number printed in a supplementary file, which may have a reference list of its own: not looked up in the article's list); conditions: Melanoma SK-MEL-2; highest log conc -4.0; NCI-60 screen data; cited from earlier work
MDA-MB-435 = test system: MDA-MB-435; parameters: method as in ref 29 (a number printed in a supplementary file, which may have a reference list of its own: not looked up in the article's list); conditions: Melanoma MDA-MB-435; highest log conc -4.0; NCI-60 screen data; cited from earlier work
UACC-62 = test system: UACC-62; parameters: method as in ref 29 (a number printed in a supplementary file, which may have a reference list of its own: not looked up in the article's list); conditions: Melanoma UACC-62; highest log conc -4.0; NCI-60 screen data; cited from earlier work
LOXIMVI = test system: LOXIMVI; parameters: method as in ref 29 (a number printed in a supplementary file, which may have a reference list of its own: not looked up in the article's list); conditions: Melanoma LOXIMVI; highest log conc -4.0; NCI-60 screen data; cited from earlier work
OVCAR-8 = test system: OVCAR-8; parameters: method as in ref 29 (a number printed in a supplementary file, which may have a reference list of its own: not looked up in the article's list); conditions: Ovarian OVCAR-8; highest log conc -4.0; NCI-60 screen data; cited from earlier work
OVCAR-5 = test system: OVCAR-5; parameters: method as in ref 29 (a number printed in a supplementary file, which may have a reference list of its own: not looked up in the article's list); conditions: Ovarian OVCAR-5; highest log conc -4.0; NCI-60 screen data; cited from earlier work
A549/ATCC = test system: A549/ATCC; parameters: method as in ref 29 (a number printed in a supplementary file, which may have a reference list of its own: not looked up in the article's list); conditions: Non-SmallCellLung A549/ATCC; highest log conc -4.0; NCI-60 screen data; cited from earlier work
SW-620 = test system: SW-620; parameters: method as in ref 29 (a number printed in a supplementary file, which may have a reference list of its own: not looked up in the article's list); conditions: Colon SW-620; highest log conc -4.0; NCI-60 screen data; cited from earlier work
SK-MEL-5 = test system: SK-MEL-5; parameters: method as in ref 29 (a number printed in a supplementary file, which may have a reference list of its own: not looked up in the article's list); conditions: Melanoma SK-MEL-5; highest log conc -4.0; NCI-60 screen data; cited from earlier work
T-47D = test system: T-47D; parameters: method as in ref 29 (a number printed in a supplementary file, which may have a reference list of its own: not looked up in the article's list); conditions: Breast T-47D; highest log conc -4.0; NCI-60 screen data; cited from earlier work
CAKI-1 = test system: CAKI-1; parameters: method as in ref 29 (a number printed in a supplementary file, which may have a reference list of its own: not looked up in the article's list); conditions: Renal CAKI-1; highest log conc -4.0; NCI-60 screen data; cited from earlier work
786-0 = test system: 786-0; parameters: method as in ref 29 (a number printed in a supplementary file, which may have a reference list of its own: not looked up in the article's list); conditions: Renal 786-0; highest log conc -4.0; NCI-60 screen data; cited from earlier work
HL-60(TB) = test system: HL-60(TB); parameters: method as in ref 29 (a number printed in a supplementary file, which may have a reference list of its own: not looked up in the article's list); conditions: Leukemia HL-60(TB); highest log conc -4.0; NCI-60 screen data; cited from earlier work
PC-3 = test system: PC-3; parameters: method as in ref 29 (a number printed in a supplementary file, which may have a reference list of its own: not looked up in the article's list); conditions: Prostate PC-3; highest log conc -4.0; NCI-60 screen data; cited from earlier work
RPMI-8226 = test system: RPMI-8226; parameters: method as in ref 29 (a number printed in a supplementary file, which may have a reference list of its own: not looked up in the article's list); conditions: Leukemia RPMI-8226; highest log conc -4.0; NCI-60 screen data; cited from earlier work
SR = test system: SR; parameters: method as in ref 29 (a number printed in a supplementary file, which may have a reference list of its own: not looked up in the article's list); conditions: Leukemia SR; highest log conc -4.0; NCI-60 screen data; cited from earlier work
TK-10 = test system: TK-10; parameters: method as in ref 29 (a number printed in a supplementary file, which may have a reference list of its own: not looked up in the article's list); conditions: Renal TK-10; highest log conc -4.0; NCI-60 screen data; cited from earlier work
NCI-H23 = test system: NCI-H23; parameters: method as in ref 29 (a number printed in a supplementary file, which may have a reference list of its own: not looked up in the article's list); conditions: Non-SmallCellLung NCI-H23; highest log conc -4.0; NCI-60 screen data; cited from earlier work

Structure (SMILES)	GI50 AVGDATA (SK-MEL-2)	GI50 AVGDATA (MDA-MB-435)	GI50 AVGDATA (UACC-62)	GI50 AVGDATA (LOXIMVI)	GI50 AVGDATA (OVCAR-8)	GI50 AVGDATA (OVCAR-5)	GI50 AVGDATA (A549/ATCC)	GI50 AVGDATA (SW-620)	GI50 AVGDATA (SK-MEL-5)	GI50 AVGDATA (T-47D)	GI50 AVGDATA (CAKI-1)	GI50 AVGDATA (786-0)	GI50 AVGDATA (HL-60(TB))	GI50 AVGDATA (PC-3)	GI50 AVGDATA (RPMI-8226)	GI50 AVGDATA (SR)	GI50 AVGDATA (TK-10)	GI50 AVGDATA (NCI-H23)	further results
C[C@H](CN[C@@H](C(=O)Nc1ccc(-c2cnn(C)c2)cn1)c1ccccc1)c1ccc(C#N)cc1 [CPI-1612]																			IC50 (MCF10A PANK4 KO+EV cells; Homo sapiens, MCF-10A KO+EV, 72 h): 84 nM; growth inhibition activity at 1 μM (MCF10A PANK4 KO+EV cells; PANK4 KO+EV cells, 1 μM): remains active; GI50 (NCI-H322M; Homo sapiens, read-out: GI50 NLOGVALUE (converted)): 288 nM; IC50 (NCI-H322M; Homo sapiens, read-out: IC50 NLOGVALUE): > 100 µM; TGI NLOGVALUE (NCI-H322M): 4; GI50 (U251; Homo sapiens, U-251, read-out: GI50 NLOGVALUE (converted)): 2340 nM; IC50 (U251; Homo sapiens, U-251, read-out: IC50 NLOGVALUE (converted)): 28.8 µM; CC50 (U251; Homo sapiens, U-251, read-out: LC50 NLOGVALUE): > 100 µM; TGI NLOGVALUE (U251): 4
COC(=O)N1c2ccc3c(nc(Cc4ccccc4)n3[C@H]3CCC[C@H](C(=O)O)C3)c2CC[C@@H]1C [FT-6876]	-4.46	-5.07	-5.68	-5.99	-4.55	-4.51	-4.56	-4.33	-4.99	-5.5	-5.74	-5.25	-5.5	-5.25	-5.42	-4.86	-5.24		
Cc1sc2c(c1C)C(c1ccc(Cl)cc1)=N[C@@H](CC(=O)OC(C)(C)C)c1nnc(C)n1-2 [JQ-1]	-5.27	-6.87	-7.16	-7.17	-6.21	-4.98	-6.5	-5.39	-6.47	-6.67	-7.27	-6.08	-7.52	-5.96	-7.4	-7.35	-7.23	-6.55	
CO[C@H]1CC[C@H](n2c([C@@H]3CCCC(=O)N3c3ccc(F)c(F)c3)nc3cc(-c4c(C)noc4C)ccc32)CC1 [inobrodib]	-4.94	-5.1	-5.6	-5.38	-4.99	-4.77	-4.93	-4.72	-5.24	-5.69	-6.19		-6.07	-5.46	-6.15	-6.12	-5.61	-4.88	
